In ChEMBL document CHEMBL5137057, “Small Carbohydrate Derivatives as Potent Antibiofilm Agents” (J Med Chem, 2022):
Converted amounts (≈) assume the structure as drawn.

What was measured:
[1] = system: Cutibacterium acnes; assay: Antibiofilm activity against Propionibacterium acnes LMG 16711 assessed as inhibition of biofilm formation at 0.08 % (w/v) incubated for 24 hrs by fluorescence based analysis; type: functional; design: scale not given: the % may be the effect or the level left
[2] = system: Cutibacterium acnes; assay: Antibiofilm activity against Propionibacterium acnes LMG 16711 assessed as inhibition of biofilm formation at 0.01 % (w/v) incubated for 24 hrs by fluorescence based analysis; type: functional; design: scale not given: the % may be the effect or the level left
[3] = target: Protease LasA (Pseudomonas aeruginosa) (UniProt P14789); assay: Inhibition of Pseudomonas aeruginosa PAO1 LasA protease at 64 to 256 ug/ml using azocasein as substrate incubated for 24 hrs by spectrophotometrical analysis relative to control; settings: dose 64-256 µg/ml
Sequence of Protease LasA (Pseudomonas aeruginosa) (P14789 whole entry): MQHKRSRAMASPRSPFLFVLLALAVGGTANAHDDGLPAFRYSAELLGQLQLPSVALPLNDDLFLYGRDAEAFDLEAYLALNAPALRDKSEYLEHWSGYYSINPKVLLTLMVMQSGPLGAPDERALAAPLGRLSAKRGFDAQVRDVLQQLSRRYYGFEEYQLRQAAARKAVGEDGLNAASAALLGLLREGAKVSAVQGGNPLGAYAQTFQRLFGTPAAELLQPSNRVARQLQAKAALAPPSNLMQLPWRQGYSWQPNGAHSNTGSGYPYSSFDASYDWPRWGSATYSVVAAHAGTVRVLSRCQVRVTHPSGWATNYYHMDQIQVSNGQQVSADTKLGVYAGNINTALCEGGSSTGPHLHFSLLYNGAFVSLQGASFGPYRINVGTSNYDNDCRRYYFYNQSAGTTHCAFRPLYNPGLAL

[4] = Inhibition of AHL-mediated quorum sensing system in Pseudomonas aeruginosa PAO1 assessed as decrease in C4-HSL levels at 64 ug/ml by HPLC/MS analysis relative to control; settings: dose 64.0 µg/ml
[5] = target: 3-(3-hydroxydecanoyloxy)decanoate synthase (Pseudomonas aeruginosa (strain ATCC 15692 / PAO1 / 1C / PRS 101 / LMG12228)) (UniProt Q51559); assay: Inhibition of Pseudomonas aeruginosa PAO1 Rhamnolipid at 64 to 256 ug/ml by spectrophotometrical analysis relative to control; settings: dose 64-256 µg/ml
[6] = system: Pseudomonas aeruginosa; assay: Inhibition of Pseudomonas aeruginosa PAO1 Pyocyanin at 64 to 256 ug/ml by spectrophotometrical analysis relative to control; settings: dose 64-256 µg/ml
[7] = system: Burkholderia cepacia; assay: In vivo antibacterial activity against Burkholderia cepacia LMG 16656 infected in BALB/C mouse assessed as reduction in bacterial load in lung at 2 mg/kg, INH administered for 24 to 48 hr post bacterial infection and measured after 3 days post compound treatment in presence of tobramycin relative to control; type: functional; design: scale not given: the % may be the effect or the level left; settings: time 3 day
[8] = target: Elastase (Pseudomonas aeruginosa (strain ATCC 15692 / PAO1 / 1C / PRS 101 / LMG12228)) (UniProt P14756); assay: Inhibition of Pseudomonas aeruginosa PAO1 LasB elastase at 64 to 256 ug/ml incubated for 16 hrs by elastin Congo red (ECR) assay relative to control; settings: dose 64-256 µg/ml
Sequence of Elastase (Pseudomonas aeruginosa (strain ATCC 15692 / PAO1 / 1C / PRS 101 / LMG12228)) (P14756 198-498 limits assumed): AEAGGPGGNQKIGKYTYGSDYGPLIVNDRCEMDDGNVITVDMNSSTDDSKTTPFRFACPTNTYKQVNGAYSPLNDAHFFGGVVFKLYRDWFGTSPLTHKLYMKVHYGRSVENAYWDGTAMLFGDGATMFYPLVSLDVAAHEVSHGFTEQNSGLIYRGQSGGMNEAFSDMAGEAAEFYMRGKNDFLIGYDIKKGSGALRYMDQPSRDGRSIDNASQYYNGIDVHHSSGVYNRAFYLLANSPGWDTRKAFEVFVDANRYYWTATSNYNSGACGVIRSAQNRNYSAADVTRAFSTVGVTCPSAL

[9] = system: Pseudomonas aeruginosa; assay: Antibiofilm activity against Pseudomonas aeruginosa PAO1 assessed as reduction in bacterial growth by crystal violet staining based assay; type: functional
[10] = system: Staphylococcus aureus; assay: Prevention of Staphylococcus aureus ATCC 25904 adherence to fibrinogen at 64 ug/ml by crystal violet staining based analysis relative to control; type: functional; settings: dose 64 µg/ml
[11] = target: T1, Sortase A (Staphylococcus aureus, UniProt Q9S446); assay: Inhibition of Staphylococcus aureus ATCC 25904 Sortase A protease expressed in Escherichia coli BL21 expression system using Dabcyl-QALPETGEE-Edans as substrate incubated for 30 mins by FRET assay
T1 sequence (Q9S446 whole entry): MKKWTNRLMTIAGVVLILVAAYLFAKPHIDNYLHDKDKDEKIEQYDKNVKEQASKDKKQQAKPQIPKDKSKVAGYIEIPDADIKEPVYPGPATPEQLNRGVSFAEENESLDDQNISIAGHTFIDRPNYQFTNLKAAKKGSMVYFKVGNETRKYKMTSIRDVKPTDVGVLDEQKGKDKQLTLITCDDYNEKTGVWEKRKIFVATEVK

[12] = system: Pseudomonas aeruginosa; assay: Antibiofilm activity against Pseudomonas aeruginosa ATCC 27853 at 0.5 mg/ml measured after 24 hrs by crystal violet staining based assay relative to control; type: functional
[13] = system: Serratia marcescens; assay: Antibacterial activity against Serratia marcescens ATCC 27117 assessed as inhibition of biofilm formation at 50 ug/ml incubated for 24 hrs by crystal violet staining based analysis relative to control; type: functional; design: scale not given: the % may be the effect or the level left; settings: dose 50 µg/ml
[14] = system: Pseudomonas aeruginosa; assay: Antibacterial activity against Pseudomonas aeruginosa PAO1 NCTC 10332 assessed as inhibition of biofilm dispersion incubated for 24 hrs by crystal violet staining based analysis; type: functional, organism-based; settings: PAO1 NCTC 10332, 24 h
[15] = system: Pseudomonas aeruginosa; assay: Antibacterial activity against Pseudomonas aeruginosa PAO1 NCTC 10332 assessed as inhibition of biofilm formation at 100 ug/ml incubated for 24 hrs by crystal violet staining based analysis relative to control; type: functional; design: scale not given: the % may be the effect or the level left; settings: dose 100 µg/ml
[16] = system: Pseudomonas aeruginosa; assay: Antibacterial activity against Pseudomonas aeruginosa PAO1 NCTC 10332 assessed as inhibition of biofilm formation incubated for 24 hrs by crystal violet staining based analysis; type: functional, organism-based; settings: PAO1 NCTC 10332, 24 h
[17] = system: Escherichia coli; assay: Antibiofilm activity against Escherichia coli UTI89 at 2.5 ug/ml incubated for 72 hrs by crystal violet staining based assay relative to control; type: functional; settings: dose 2.5 µg/ml
[18] = target: T2, PA-I galactophilic lectin (Pseudomonas aeruginosa (strain ATCC 15692 / PAO1 / 1C / PRS 101 / LMG12228), UniProt Q05097); assay: Inhibition of FITC-labelled Pseudomonas aeruginosa LecA incubated for 1 hr by fluorescence based analysis
T2 sequence (Q05097 whole entry): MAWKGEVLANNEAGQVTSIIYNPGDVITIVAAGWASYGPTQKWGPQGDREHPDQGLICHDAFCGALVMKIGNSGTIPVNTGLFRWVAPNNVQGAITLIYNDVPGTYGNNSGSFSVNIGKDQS

[19] = system: Escherichia coli; assay: Antibiofilm activity against Escherichia coli UTI89 at 5 ug/ml incubated for 72 hrs by crystal violet staining based assay relative to control; type: functional; settings: dose 5 µg/ml
[20] = Inhibition of C-terminal 6His-tagged Escherichia coli UTI89 FmlH (1 to 160 residues) expressed in Escherichia coli C600 expression system using tetramethylbenzidine as substrate incubated for 1 hr by […]
[21] = target: T1, Sortase A; assay: Inhibition of Staphylococcus aureus ATCC 6538p Sortase A protease expressed in Escherichia coli BL21 expression system using Dabcyl-QALPETGEE-Edans as substrate incubated for 1 hr by FRET assay
[22] = system: Streptococcus suis; assay: Prevention of Streptococcus suis ATCC 700794 adherence to sucrose-dependent membrane surface at 78.1 ug/ml relative to control; type: functional; settings: dose 78.1 µg/ml

CC(C)=CCc1c(O[C@@H]2O[C@H](CO)[C@@H](O)[C@H](O)[C@H]2O)cc(O)c2c(=O)c(O[C@@H]3O[C@H](CO)[C@@H](O)[C@H](O)[C@H]3O)c(-c3ccc(O)c(O)c3)oc12
Activity [1]: 75%
Activity [2]: 40%

O=C(O)[C@H]1O[C@@H](Oc2cc3oc(-c4ccccc4)cc(=O)c3c(O)c2O)[C@H](O)[C@@H](O)[C@@H]1O [BAICALIN]
inhibition [3]: 48.6%
inhibition [4]: 77.2%
inhibition [5]: 45.1%
inhibition [6]: 61.7%
Activity [7]: 99%
inhibition [8]: 77.1%
MIC [9]: > 1020 µg/mL

C[C@H]1O[C@@H](Oc2c(-c3ccc(O)c(O)c3)oc3cc(O)cc(O)c3c2=O)[C@H](O)[C@H](O)[C@H]1O
Activity [10]: 51.9%
IC50 [11]: 71.4 µM

CC(=O)O[C@@H]1[C@H](O[C@H]2CC[C@H](C)[C@@]3(C)C[C@@H](/C(C)=C/CC=C(C)C)CC[C@H]23)OC[C@@H](OC(C)=O)[C@H]1OC(C)=O
Activity [12]: 60%

CCCCCCC[C@H](CC(=O)N1CCOCC1)OC(=O)C[C@@H](CCCCCCC)O[C@@H]1O[C@@H](C)[C@H](O)[C@@H](O)[C@H]1O[C@@H]1O[C@@H](C)[C@H](O)[C@@H](O)[C@H]1O
Activity [13]: >80%
IC50 [14]: 10 µg/mL (≈ 13.9 µM)
Activity [15]: 90%
IC50 [16]: 12.5 µg/mL (≈ 17.4 µM)

CC(=O)O[C@@H]1[C@@H](O)[C@@H](O)[C@H](O[C@@H]2[C@@H](O)[C@H](OCCc3ccc(O)c(O)c3)O[C@H](CO)[C@H]2OC(=O)/C=C/c2ccc(O)c(O)c2)O[C@H]1C
Activity [17]: 77%

OC[C@H]1O[C@@H](OCc2cn([C@H]3[C@H](O)[C@@H](O)[C@H](c4cn([C@H]5[C@H](O)[C@@H](O)[C@H](n6cc([C@@H]7O[C@H](CO)[C@@H](n8cc(CO[C@@H]9O[C@H](CO)[C@H](O)[C@H](O)[C@H]9O)nn8)[C@H](O)[C@H]7O)nn6)O[C@@H]5CO)nn4)O[C@@H]3CO)nn2)[C@H](O)[C@@H](O)[C@H]1O
IC50 [18]: 0.028 µM

C[C@@H]1O[C@@H](O[C@@H]2[C@@H](O)[C@H](OCCc3ccc(O)c(O)c3)O[C@H](CO)[C@H]2OC(=O)/C=C/c2ccc(O)c(O)c2)[C@H](O)[C@H](O)[C@H]1O [ACETOSIDE]
Activity [19]: 60%

O=C(O)C[C@H]1[C@@H](Oc2ccccc2-c2cccc(C(=O)O)c2)O[C@H](CO)[C@H](O)[C@@H]1O
Kd [20]: 0.64 µM

CC[C@H](CCC(C)[C@H]1CC[C@H]2[C@@H]3CCC4C[C@@H](O[C@@H]5O[C@H](CO)[C@@H](O)[C@H](O)[C@H]5O)CC[C@]4(C)[C@H]3CC[C@]12C)C(C)C (some centres not stated)
IC50 [21]: 31.6 µM

C[C@@H]1O[C@@H](OC[C@H]2O[C@@H](Oc3c(-c4ccc(O)c(O)c4)oc4cc(O)cc(O)c4c3=O)[C@H](O)[C@@H](O)[C@@H]2O)[C@H](O)[C@H](O)[C@H]1O [RUTIN]
Activity [22]: 20%
